In patent US20220062166A1, “Self-Gelling Solutions for Administration of Therapeutics to the Inner Ear” (Spiral Therapeutics, Inc., priority 2019, published 2022):

What was measured:
[1] = tested on: noise-induced ABR threshold shift; test: Noise trauma ABR threshold study; type: in vivo; details: at 10 and 21 days; TRAUMA+LPT99 group
[2] = GLP auditory safety study in rats after single TT administration; details: rat, in vivo
Experimental: The study consisted of 10 groups of rats: 6 groups for toxicology (Groups 1 to 6, 20 males and 20 females per group), and 4 groups for toxicokinetics (Groups 7 to 10, 6 males and 6 females per group).
All animals were assessed weekly for body weights and qualitative food consumption. In addition, otoscopic evaluation of the dosing sites (tympanic membrane, Groups 1 to 6) and ABR testing for hearing function were performed at predosing; and on Days 1, 7, and/or 14. Animals in the toxicology groups (Groups 1 to 6) were sacrificed on Day 1 (10 males and 10 females per group) and Day 14 (the remaining 10 males and 10 females per group). At necropsy, terminal blood samples were tested for hematology, serum chemistry, and coagulation parameters. Gross observations were recorded, and selected organs were weighed. One ear per animal in Groups 1 to 5 was collected and processed for cytocochleogram assessment.

[3] = Metabolic profile and stability in microsomal and S9 hepatic fractions; type: in vitro ADME, human, dog, rabbit, rat, and mouse
Source text: The metabolic profile and stability of LPT99 was characterized in human, dog, rabbit, rat, and mouse microsomal and S9 fractions, and in human cytosolic fractions.

[4] = Physical stability of drug product vials; type: physicochemical; details: vials stored at 4C
Experimental: Vials of the drug product were stored at either room temperature or 4° C. for a period greater than three months. To test the LPT99 concentration in vials, the liquid drug product was filtered through sterile 0.2 micron filters.

HEI-OC1 cells = test: Release of mitochondrial cyt c in HEI-OC1 cells with CisPt (flow cytometry); type: cell-based
Experimental: Flow cytometry was also used to characterize the effect of LPT99 in the release of mitochondrial cyt c in HEI-OC1 cells in vitro with CisPt prevention. Results
The effect of LPT99 on proliferation of non-apoptotic cells was studied. A549 cells were cultured in the presence of LPT99 for up to 6 days; the cell number was monitored by flow cytometry, and doubling time was calculated.

caspase 9 = molecular target: T1, caspase 9 (Homo sapiens, UniProt P55211); test: Caspase 9 activation assay with recombinant proteins; type: biochemical; details: in %
T1 sequence (P55211 1-416): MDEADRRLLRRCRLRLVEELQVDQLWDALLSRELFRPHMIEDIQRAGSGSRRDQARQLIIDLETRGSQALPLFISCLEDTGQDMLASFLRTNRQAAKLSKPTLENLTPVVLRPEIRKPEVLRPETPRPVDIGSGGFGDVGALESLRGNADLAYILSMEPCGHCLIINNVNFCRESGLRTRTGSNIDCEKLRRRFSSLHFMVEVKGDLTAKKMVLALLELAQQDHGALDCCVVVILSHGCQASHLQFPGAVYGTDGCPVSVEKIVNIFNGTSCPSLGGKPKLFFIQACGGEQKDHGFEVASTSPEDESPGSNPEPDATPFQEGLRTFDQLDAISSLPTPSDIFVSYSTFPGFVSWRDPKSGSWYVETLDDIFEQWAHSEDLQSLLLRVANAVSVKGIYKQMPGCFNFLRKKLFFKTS
Experimental: The specificity of LPT99 was tested in vitro on Apaf1, caspase 3, and caspase 9 (proteins from the apoptotic cascade), and a broad panel of potential pharmacological targets.
LPT99 inhibited the formation of the apoptosome complex composed by recombinant Apaf1, cyt c, deoxyadenosine triphosphate (dATP), and caspase 9. This activity was measured as inhibition of caspase 3 activation. […] To evaluate the specificity of the inhibition, an assay of caspase 3 and 9 activation was set up with recombinant proteins. The inhibitions of caspase 3 and 9 were 7.6±14.7 and 5.3±3.5, respectively, for LPT99.

[5] = GLP dermal sensitization main study (Buehler test) in guinea pigs; type: in vivo, guinea pig; details: 24 or 48 hours after the challenge dose, 797 μM
Experimental: A GLP-compliant dermal sensitization study was conducted with LPT99 in guinea pigs. The objective was to assess potential dermal sensitization of LPT99 using the Buehler test (Buehler, Arch Dermatol. 1965, 91, 171-7). The test article, LPT99, was in a neutral-pH, buffered, isotonic solution containing a thermoreversible compound. The vehicle control was buffered at neutral pH and formulated as for the test article; it contained POLOXAMER® 407, disodium phosphate dodecahydrate hydrogen, sodium dihydrogen phosphate dihydrate, sodium chloride, and water for injection. The main study consisted of 2 groups of 20 or 10 guinea pigs. Group 1 was 10 male and 10 female guinea pigs dosed with the highest concentration of LPT99, 797 μM, that was used in the dose range-finding substudy (Group 1). Group 2 was 5 male and 5 female animals that were not dosed with LPT99 (Group 2) during the induction phase and served as naïve controls; Group 2 was challenged with LPT99 on Day 28. LPT99 was topically administered to the skin in the shaved scapula area in a volume of 50 μL on Study Days 0, 7, and 14 (induction doses), and on Day 28 (challenge dose). […] The PDII (post-challenge) was calculated for the test article or vehicle by dividing the sum of the Total Irritation Score by the number of observations (e.g., 3 days×6 animals=18 (number of observations).

[6] = Toxicokinetic assessment in the acute IP toxicity study; type: in vivo, rat; details: all tested dose levels
Experimental: LPT99 was suspended in vehicle [0.5% w/v methylcellulose and 0.1% v/v TWEEN® 80 in Milli-Q water] and administered intraperitoneally to Sprague-Dawley rats as a single dose at the doses of 100 (low—G2/G2TK), 300 (mid—G3/G3TK), and 750 (high—G4/G4TK) mg/kg body weight. The rats in vehicle control groups (G1/G1TK) received the vehicle alone. The dose volume administered was at an equivolume of 10 mL/kg body weight for all groups.
The main toxicity groups consist of 15 rats/sex/group in G1 and G4 groups and 10 rats/sex/group in G2 and G3 groups. The toxicokinetic groups consisted of 6 males and 6 female rats each for the prevention groups, whereas the vehicle control group had 3 male and 3 female rats.
Gender related differences were observed.

Question: Which “ABR Threshold shift after noise exposure” value [1] does the source give for `COc1ccc2[nH]cc(CCNC(=O)CC3C(=O)N(CCc4ccc(Cl)cc4Cl)CC(=O)N3CCc3cccs3)c2c1` (centres unmarked) [LPT99, 2-(4-(2,4-dichlorophenethyl)-3,6-dioxo-1-(2-(thiophen-2-yl)ethyl)piperazin-2-yl)-N-(2-(5-methoxy-1H-indol-3-yl)ethyl)acetamide] here?
Answer: The value was “back at basal levels”.

Question: And the “hair cell loss (cytocochleogram)” value [2]?
Answer: The value was “no reliable evidence of test-article-related hair cell loss”.

Question: What about the “otoscopic scores (erythema, edema, wounds) of tympanic membranes” value [2] of the same molecule?
Answer: The value was “no statistically significant changes”.

Question: What about the “number of metabolites formed through phase I biotransformation” value [3] of the same molecule?
Answer: Its value is ≤ 9.

Question: And the “metabolized after 1 hour” value ([3]; microsomal and S9 hepatic fractions, all tested species)?
Answer: The value was > 90%.

Question: And the “time to LPT99 precipitation” value [4]?
Answer: The value was “approximately 2 months”.

Question: What about the “release of mitochondrial cyt c” value (HEI-OC1 cells; HEI-OC1 cells, after CisPt alone or pre-incubated with LPT99) of the same molecule?
Answer: The value was 68.1% ±1.0%.

Question: And the “release of cyt c from mitochondria” value (HEI-OC1 cells; cellular model of CisPt-induced apoptosis)?
Answer: The value was “decreased release of cyt c from mitochondria”.

Question: What about the “inhibition of caspase 9” value (caspase 9) of the same molecule?
Answer: Its value is 5.3±3.5.

Question: What about the Draize scores [5] of the same molecule?
Answer: Its Draize scores is “No Draize scores were >0”.

Question: What about the “exposure in females vs males” value [6] of the same molecule?
Answer: Its value is 1.5-5.5 fold.
